Data taken from paper PMC9666555, “Genuine selective caspase-2 inhibition with new irreversible small peptidomimetics” (Cell Death & Disease, 2022).

Key:
recombinant human Casp2 = biological target: T1, recombinant human Casp2 (Homo sapiens, UniProt P42575); assay: Enzyme mechanistic studies (Ki, k3, k3/KI), Caspase-2; assay type: biochemical; conditions: irreversible inhibitors, progress curve method
T1 sequence (P42575 170-325 limits assumed): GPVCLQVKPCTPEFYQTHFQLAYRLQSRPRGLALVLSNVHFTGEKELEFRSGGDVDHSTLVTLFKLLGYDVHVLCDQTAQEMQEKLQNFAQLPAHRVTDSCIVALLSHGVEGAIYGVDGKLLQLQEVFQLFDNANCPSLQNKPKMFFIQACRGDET
T1 sequence (P42575 348-452 limits assumed): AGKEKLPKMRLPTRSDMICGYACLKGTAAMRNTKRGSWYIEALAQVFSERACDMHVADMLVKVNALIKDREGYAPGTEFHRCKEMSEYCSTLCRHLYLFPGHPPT
Experimental: (§1) For reversible inhibitors, the mechanisms of inhibition were determined by varying substrate and inhibitor concentrations and using Lineweaver−Burk representations to determine the inhibition constants Ki of competitive inhibitors (Ki = [E][I]/[EI]). For suicide inhibitors, inactivation can be represented by the minimum kinetic scheme (Eq. 2), where E and I are the free forms of enzyme and inhibitor, E * I a kinetic chimera of the Michaelis complex and E − I the covalent complex (inactivated enzyme).2 E+I⇄KIE*I→k3E−I
(§2) KI and k3 are the kinetic constants characterizing the inactivation process and the k3/KI ratio is an index of the inhibitory potency. The first-order rate constant, k3, and the apparent dissociation constant, KI, were determined for Caspase-2 and -3 using the progress curve method. Briefly, the enzyme activities were measured continuously for 120 min. To determine the kinetic parameters, progress curves were obtained at several inhibition concentrations using fixed substrate concentration. The product released for each inhibitor concentration was plotted versus the time following Eq. 3 where the constant π depended on [I]’, a modified inhibitor concentration due to substrate competition, according to Eq. 4. [I]’ is defined by Eq. 5, where KM was Michaelis constant for the enzymatic hydrolysis of the appropriate fluorogenic substrate. The ratio k3/KI was obtained by fitting the experimental data to the equations (F.U., fluorescence unit):3 F.U.=∫0tvidt+F.U0−vo×e^−π×t/π+F.U.0 4 π=k3×[I]^′/KI+[I]^′ 5 [I]^′=[I]/1+S/KM
Linear and nonlinear regression fits of the experimental data to the equations were performed with KaleidaGraph software. The experimental conditions were [Caspase-2]0 = 0.2 nM, [Ac-VDVAD-AMC]0 = 25 µM and [Caspase-3]0 = 0.1 nM, [Ac-DEVD-AMC]0 = 10 µM; [I]0 = 0–100 µM.

recombinant human Casp3 = biological target: T2, recombinant human Casp3 (Homo sapiens, UniProt P42574); assay: Enzyme mechanistic studies (Ki, k3, k3/KI), Caspase-3; assay type: biochemical; conditions: irreversible inhibitors, progress curve method
T2 sequence (P42574 29-175 limits assumed): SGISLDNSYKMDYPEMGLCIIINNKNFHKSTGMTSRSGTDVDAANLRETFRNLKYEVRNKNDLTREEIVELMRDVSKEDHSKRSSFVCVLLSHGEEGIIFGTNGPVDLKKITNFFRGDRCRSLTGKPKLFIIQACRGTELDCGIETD
T2 sequence (P42574 176-277 limits assumed): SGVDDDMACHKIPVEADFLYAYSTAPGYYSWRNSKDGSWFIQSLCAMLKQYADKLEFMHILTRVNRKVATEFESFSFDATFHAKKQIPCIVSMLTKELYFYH
Experimental: as §1, §2
Linear and nonlinear regression fits of the experimental data to the equations were performed with KaleidaGraph software.

[1] = design: method as in PMID 21881605; conditions: cited from earlier work
[2] = test system: Molt4 lymphoid human cells; assay: Panobistat (LBH589)-induced cell death in Molt4 cells (propidium iodide, flow cytometry); assay type: cell-based; conditions: Molt4, 1 h pretreatment (30 µM or indicated doses), 25 nM LBH589 24 h
Experimental: (§3) HeLa cells (obtained from ATCC) were cultured in Dulbecco’s Modified Eagle Medium (DMEM, High Glucose, GlutaMAX™, Pyruvate) supplemented with antibiotics and 10% fetal calf serum (FCS) (Gibco, Life Technologies) and maintained in T75 Flasks at 1 × 10^6 cells per flask. Twenty-four hours before treatments, HeLa cells were transferred to 6-well plates (8 × 10^4 cells/well). The lymphoblastoid cell line Molt4cl8 was a gift from Dr. Bernard Krust (Inserm, University Paris 5) and was cultured in RPMI 1640 Glutamax medium supplemented with Hepes, antibiotics, and 10% FCS. HEK293 cells were obtained from ATCC (CRL-1573) and cultured in DMEM with Glutamax and 25 mM glucose (Life Technologies) supplemented with 10% FCS and antibiotics. For cell death induction, the following agents were added to cell cultures: Vincristine (Sigma) and Panobistat (LBH589; Selleck). Cell death was analyzed using fluorescence microscopy (Axio-observer Z1, Zeiss; equipped with CCD camera CoolsnapHQ2, Ropert Scientific) and cytofluorometry (MACSQuant® VYB; Miltenyi Biotec, Bergisch Gladbach, Germany) after labeling with propidium iodide (1 µg/mL; 10 min; 37 °C; Life Technologies) and Hoechst 33342 (1 µg/mL; 5 min; RT; Sigma).
Fig. 5 LJ2 inhibits cell death induced by microtubule destabilization and hydroxamic acid-based deacetylase (HDAC) inhibition. a Effect of the irreversible Caspase-2 inhibitors LJ2 against vincristine-induced cell death. HeLa cells were pretreated for 1 h with the indicated doses of LJ2, Q-VD-OPh, or Q-LETD-OPh, then treated with vincristine (VCR) as in Fig. 2, then incubated with propidium iodide at 2 μg/mL for 10 min and analyzed by flow cytometry. […] Molt4 lymphoid human cells where were pretreated for 1 h with 30 µM of LJ2, Q-VD-OPh, or Belnacasan (VX-765), then treated for 24 h with 25 nM of LBH589, then incubated with propidium iodide as in (a) and analyzed by flow cytometry. […] Molt4 cells were treated as in (b) with the indicated doses of LJ2 or Q-VD-OPh and analyzed by flow cytometry. […]

HeLa cells = assay: Vincristine-induced HeLa cell death (propidium iodide, flow cytometry); assay type: cell-based, human; conditions: 1 h pretreatment, 20 nM vincristine 44 h
Experimental: as §3
Fig. 2 q33 and h33 are protective against the cytocidal effect of Vincristine. a Vincristine induces HeLa cell death. Cells were incubated for 44 h at 37 °C with 20 nM Vincristine (VCR), then incubated with propidium iodide at 2 μg/mL for 10 min and analyzed by flow cytometry to quantify plasma membrane permeabilization. Histograms show fluorescence intensity detected by flow cytometry (one representative experiment) in the presence (VCR) or Absence (Co.) of Vincristine. % of propidium iodide-positive cells are indicated for both conditions. b Dose–response of Vincristine-induced cell death. HeLa cells were incubated and treated as in (a) with the indicated doses of Vincristine (VCR) and analyzed by flow cytometry. […] Representative fluorescence microscopy micrographs of cells treated for 44 h with 20 nM vincristine (VCR) or not (Co.) and stained with Hoechst 33342. Vincristine induces progressive nuclear changes with first condensed nuclei (arrows) and then apoptotic bodies (dashed arrow). d Broad-spectrum irreversible caspase inhibitors prevent vincristine-induced cell death. HeLa cells were pretreated for 1 hr with the indicated broad-spectrum irreversible caspases inhibitors (z-VAD(OMe)-fmk at 30 μM, Q-VD-OPh 30 μM, Emricasan 10 μM, or the negative control Q-VE-OPh 30 μM), then treated with vincristine as in panel (a), and analyzed by flow cytometry. Histograms show the mean ± SD of 3 independent experiments (***p value < 0.001). e Effect of the reversible Caspase-2 inhibitors q33 and h33 against vincristine-induced cell death. HeLa cells were pretreated for 1 h with the indicated doses of q33 or h33, then treated with vincristine as in panel a, and analyzed by flow cytometry. Histograms show the mean ± SD of three independent experiments (*p value < 0.1). TEXT PRINTED IN THE PICTURE: (a) VCR: 39,5 % DOUBTS OF THE COPYIST ABOUT THIS PICTURE: Panel a: the picture prints no measure beside "39,5 %" and "4.1%". I assigned 39,5 % to VCR only because it stands by the grey VCR peak. / Panel a: "4.1%" seems to belong to the untreated control (Co.). That is not a substance, so it is left out.
Fig. 5 LJ2 inhibits cell death induced by microtubule destabilization and hydroxamic acid-based deacetylase (HDAC) inhibition. a Effect of the irreversible Caspase-2 inhibitors LJ2 against vincristine-induced cell death. HeLa cells were pretreated for 1 h with the indicated doses of LJ2, Q-VD-OPh, or Q-LETD-OPh, then treated with vincristine (VCR) as in Fig. 2, then incubated with propidium iodide at 2 μg/mL for 10 min and analyzed by flow cytometry. Histogram data are mean ± SD (n = 3, *p value < 0.01). b Effect of Caspases-inhibitors against Panobistat (LBH589)-induced cell death. […]

[3] = design: method as in PMID 31870950, PMID 31887369; conditions: cited from earlier work

## COC(=O)CC(NC(=O)[C@H](C)NC(=O)C(NC(=O)[C@H](CC(=O)OC)NC(=O)[C@@H](NC(=O)c1ccc2ccccc2n1)C(C)C)C(C)C)C(=O)COc1c(F)cccc1F (stereo in doubt) [TRP601, Quinolin-2-carbonyl-VD(OMe)VAD(OMe)-CH2-O(2,6F2)Ph, reference compound]
Recombinant human Casp2
  Casp2 k3: 5,56 ms^−1
  KI (inactivation): 378 nM
Recombinant human Casp3
  Casp3 k3: 4,24 ms^−1
  Casp3 k3/KI: 25 126 M^−1 s^−1
  KI (inactivation): 209 nM
[1]; after intraperitoneal and intraveinous administration
  neuroprotection: confer neuroprotection
[1]
  Casp2 in the brain: inhibit Casp2 in the brain
  toxicity in regulatory rodent and non-rodent studies: non-toxic

## CCO[C@@H]1OC(=O)C[C@@H]1NC(=O)[C@@H]1CCCN1C(=O)[C@@H](NC(=O)c1ccc(N)c(Cl)c1)C(C)(C)C [Belnacasan, (S)-1-((S)-2-{[1-(4-amino-3-chloro-phenyl)-methanoyl]-amino}-3,3-dimethyl-butanoyl)-pyrrolidine-2-carboxylic acid ((2R,3S)-2-ethoxy-5-oxo-tetrahydro-furan-3-yl)-amide]
[2]
  effect against Panobistat (LBH589)-induced cell death: did not affect cell death

## CC(C)[C@H](NC(=O)c1ccc2ccccc2n1)C(=O)N[C@@H](CC(=O)O)C(=O)COc1c(F)cccc1F [Q-VD-OPh]
HeLa cells; inhibitor 30 µM
  inhibition of vincristine-induced cell death: > 90%
[2]
  effect against Panobistat (LBH589)-induced cell death: strongly inhibited cell death

## C[C@H](NC(=O)C(=O)Nc1ccccc1C(C)(C)C)C(=O)N[C@@H](CC(=O)O)C(=O)COc1c(F)c(F)cc(F)c1F [Emricasan]
HeLa cells; Homo sapiens, inhibitor 10 µM
  inhibition at 10 µM: 95%
[3]
  efficacy in large clinical phase 3 studies for the treatment of NASH: failed to demonstrate efficacy
  toxicity on chronic administration in humans: not toxic nor carcinogenic
